Holding throughout (format): in vivo
In assay [1] the test system is rice leafroller (Cnaphalocrocis medinalis). As to the kind of experiment: Insecticidal effect on rice leafroller (Test Example 3). The settings on record: 500 ppm, four days after inoculation, 25° C., humidity 70%; for Insecticidal effect on rice leafroller (Test Example 3), judged grade: rice lamina dip, third-instar larvae; for Insecticidal effect, Test Example 3: rice leafroller third-instar larvae, rice lamina immersed. An outline of the steps: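 Groups of 10 third-instar larvae, in triplicate, are placed on air-dried lamina resting on wet filter paper. Incubation runs four days at 25° C with 70% humidity before survivors and dead are tallied.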

Assay [2] relates to common cutworm (Spodoptera Litura). As to the kind of experiment: Insecticidal effect on common cutworm (Test Example 2). To be noted: 500 ppm, eight days after inoculation, 25° C.; for Insecticidal effect on common cutworm (Test Example 2), judged grade: cabbage leaf dip, second-instar larvae; for Insecticidal effect, Test Example 2: common cutworm second-instar larvae, cabbage leaf immersed. The essentials: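 After the treated material air-dries, it goes into a dish, second-instar larvae are added, and the dish is closed. Incubation runs at 25° C. On day eight, dead and living larvae are scored, and the calculated mortality is rated on an effect scale.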

In assay [3] the test system is diamondback moth (Plutella xylostella). Description: Insecticidal effect on diamondback moth (Test Example 1). The settings on record: for Insecticidal effect on diamondback moth (Test Example 1), judged grade: mortality judged according to the criterion shown in Test Example 1; for Insecticidal effect, Test Example 1: diamondback moth, mortality judged by criterion of Test Example 1. An outline of the steps:
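Read-out was mortality from hatched-insect counts taken 6 days after the egg-bearing cabbage seedling was immersed, graded by set criteria. Seedlings were air-dried and kept at 25° C after treatment. Groups of 10 insects, in triplicate.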

In the case of `Cc1cc(SC(F)(F)C(F)(F)F)ccc1NC(=O)c1c(Cl)cccc1C(=O)NC(C)C` [compound 908], the “Insecticidal effect on rice leafroller (Test Example 3), judged grade” value (shortened to “Insecticidal effect on rice leafroller”) in assay [1] is reported as “A (100)”. In assay [2], the “Insecticidal effect on common cutworm (Test Example 2), judged grade” value (from here on “Insecticidal effect on common cutworm”) is “D (79-50)”. The “Insecticidal effect on diamondback moth (Test Example 1), judged grade” value (“Insecticidal effect on diamondback moth” below) in assay [3] is given as “A (100)”.
Turning to `Cc1cc(SC(F)(F)C(F)(F)F)ccc1NC(=O)c1cccc(I)c1C(=O)NC(C)C` [compound 909], the “Insecticidal effect on rice leafroller” value in assay [1] is “A (100)”. For the same molecule, in assay [2], the “Insecticidal effect on common cutworm” value was “A (100)”. Further, in assay [3], the “Insecticidal effect on diamondback moth” value was “A (100)”.
On to `CC(C)NC(=O)c1c(Cl)cccc1C(=O)Nc1ccc(C=C(Cl)Cl)cc1` [compound 915], for which the “Insecticidal effect on rice leafroller” value in assay [1] was “A (100)”. In addition, the “Insecticidal effect on common cutworm” value in assay [2] is recorded as “A (100)”. For the same molecule, the “Insecticidal effect on diamondback moth” value in assay [3] is reported as “A (100)”.
Turning to `CC(C)NC(=O)c1c(I)cccc1C(=O)Nc1ccc(C=C(Cl)C(F)(F)F)cc1` [compound 917], the “Insecticidal effect on rice leafroller” value in assay [1] is listed as “A (100)”. The “Insecticidal effect on common cutworm” value in assay [2] is recorded as “A (100)”. Moreover, the “Insecticidal effect on diamondback moth” value in assay [3] is recorded as “A (100)”.
`Cc1cc(Cl)ccc1NC(=O)c1ccccc1C(=O)NC(C)(C)C` [compound 927]: in assay [1], the “Insecticidal effect on rice leafroller” value is reported as “A (100)”. In addition, the “Insecticidal effect on common cutworm” value in assay [2] is on record as “A (100)”. The “Insecticidal effect on diamondback moth” value in assay [3] is recorded as “A (100)”.
With `CC(C)(C)NC(=O)c1ccccc1C(=O)Nc1ccc(OC(F)(F)F)cc1` [compound 929], in assay [1], the “Insecticidal effect on rice leafroller” value is given as “A (100)”. Moreover, in assay [2], the “Insecticidal effect on common cutworm” value is given as “A (100)”. In assay [3], the “Insecticidal effect on diamondback moth” value was “A (100)”.
For the molecule `Cc1cc(OC(F)(F)F)ccc1NC(=O)c1ccccc1C(=O)NC(C)(C)C` [compound 930], the “Insecticidal effect on rice leafroller” value in assay [1] is recorded as “A (100)”. For the same molecule, the “Insecticidal effect on common cutworm” value in assay [2] is “A (100)”. Besides, the “Insecticidal effect on diamondback moth” value in assay [3] is on record as “A (100)”.
With `Cc1cc(C(F)(F)C(F)(F)F)ccc1NC(=O)c1ccccc1C(=O)NC(C)(C)C` [compound 931], in assay [1], the “Insecticidal effect on rice leafroller” value is reported as “A (100)”. In addition, the “Insecticidal effect on common cutworm” value in assay [2] is on record as “A (100)”. The “Insecticidal effect on diamondback moth” value in assay [3] is “A (100)”.
For `Cc1cc(C(F)(F)C(F)(F)F)ccc1NC(=O)c1cccc(Cl)c1C(=O)NC(C)(C)C` [compound 932], the “Insecticidal effect on rice leafroller” value in assay [1] is “A (100)”. Moreover, the “Insecticidal effect on common cutworm” value in assay [2] is listed as “A (100)”. The “Insecticidal effect on diamondback moth” value in assay [3] was “A (100)”.
Turning to `CC(C)(C)NC(=O)c1c(Cl)cccc1C(=O)Nc1ccc(C(F)(F)F)cc1` [compound 934], in assay [1], the “Insecticidal effect on rice leafroller” value is reported as “A (100)”. In addition, the “Insecticidal effect on common cutworm” value in assay [2] is “A (100)”. Further, the “Insecticidal effect on diamondback moth” value in assay [3] is on record as “A (100)”.
`CC(C)(C)NC(=O)c1cccc(Cl)c1C(=O)Nc1ccc(C(F)(F)F)cc1` [compound 935]: the “Insecticidal effect on rice leafroller” value in assay [1] is recorded as “A (100)”. In assay [2], the “Insecticidal effect on common cutworm” value is reported as “A (100)”. Besides, the “Insecticidal effect on diamondback moth” value in assay [3] is “A (100)”.
In the case of `CC(C)(C)NC(=O)c1c(Cl)cccc1C(=O)Nc1ccc(OC(F)(F)F)cc1` [compound 936], in assay [1], the “Insecticidal effect on rice leafroller” value is “A (100)”. In addition, the “Insecticidal effect on common cutworm” value in assay [2] is recorded as “A (100)”. Besides, the “Insecticidal effect on diamondback moth” value in assay [3] was “A (100)”.
For `Cc1cc(Cl)ccc1NC(=O)c1cccc(Cl)c1C(=O)NC(C)(C)C` [compound 937], in assay [1], the “Insecticidal effect on rice leafroller” value is “A (100)”. Moreover, the “Insecticidal effect on common cutworm” value in assay [2] is reported as “A (100)”. Moreover, the “Insecticidal effect on diamondback moth” value in assay [3] was “A (100)”.
Take `CC(C)(C)NC(=O)c1c(I)cccc1C(=O)Nc1ccc(C(F)(F)F)cc1` [compound 939]: the “Insecticidal effect, Test Example 3” value in assay [1] is given as “A (100)”. The “Insecticidal effect, Test Example 2” value in assay [2] is on record as “A (100)”. The “Insecticidal effect, Test Example 1” value in assay [3] is “A (100)”.
In the case of `CC(C)(C)NC(=O)c1c(I)cccc1C(=O)Nc1ccc(OC(F)(F)F)cc1` [compound 940], in assay [1], the “Insecticidal effect, Test Example 3” value is “A (100)”. Further, the “Insecticidal effect, Test Example 2” value in assay [2] is “A (100)”. In addition, the “Insecticidal effect, Test Example 1” value in assay [3] is listed as “A (100)”.
As for `Cc1cc(Cl)ccc1NC(=O)c1cccc(I)c1C(=O)NC(C)(C)C` [compound 941], the “Insecticidal effect, Test Example 3” value in assay [1] is on record as “A (100)”. In assay [2], the “Insecticidal effect, Test Example 2” value is “A (100)”. The “Insecticidal effect, Test Example 1” value in assay [3] is “A (100)”.
For the molecule `Cc1cc(C(F)(F)C(F)(F)F)ccc1NC(=O)c1cccc(I)c1C(=O)NC(C)(C)C` [compound 942], the “Insecticidal effect, Test Example 3” value in assay [1] is recorded as “A (100)”. In addition, in assay [2], the “Insecticidal effect, Test Example 2” value is “A (100)”. Also, the “Insecticidal effect, Test Example 1” value in assay [3] is recorded as “A (100)”.
Take `Cc1cc(C(F)(F)C(F)(F)F)ccc1NC(=O)c1c(I)cccc1C(=O)NC(C)(C)C` [compound 943]: the “Insecticidal effect, Test Example 3” value in assay [1] is on record as “A (100)”. Moreover, the “Insecticidal effect, Test Example 2” value in assay [2] was “C (89-80)”. For the same molecule, the “Insecticidal effect, Test Example 1” value in assay [3] is “A (100)”.
Turning to `Cc1cc(OC(F)(F)F)ccc1NC(=O)c1cccc(Cl)c1C(=O)NC(C)(C)C` [compound 944], the “Insecticidal effect, Test Example 3” value in assay [1] is recorded as “A (100)”. The “Insecticidal effect, Test Example 2” value in assay [2] is on record as “A (100)”. In assay [3], the “Insecticidal effect, Test Example 1” value is given as “A (100)”.
For `CCCCNC(=O)c1c(I)cccc1C(=O)Nc1ccc(C(F)(F)C(F)(F)F)cc1C` [compound 945], the “Insecticidal effect, Test Example 3” value in assay [1] is listed as “A (100)”. Further, in assay [2], the “Insecticidal effect, Test Example 2” value is reported as “A (100)”. Besides, the “Insecticidal effect, Test Example 1” value in assay [3] was “A (100)”.
`CCCCCNC(=O)c1c(I)cccc1C(=O)Nc1ccc(C(F)(F)C(F)(F)F)cc1C` [compound 947]: the “Insecticidal effect, Test Example 3” value in assay [1] is reported as “A (100)”. Moreover, in assay [2], the “Insecticidal effect, Test Example 2” value is on record as “A (100)”. In assay [3], the “Insecticidal effect, Test Example 1” value is recorded as “A (100)”.
As for `CCCCCCNC(=O)c1c(I)cccc1C(=O)Nc1ccc(C(F)(F)C(F)(F)F)cc1C` [compound 949], in assay [1], the “Insecticidal effect, Test Example 3” value is “A (100)”. Further, in assay [2], the “Insecticidal effect, Test Example 2” value is “A (100)”. The “Insecticidal effect, Test Example 1” value in assay [3] is “A (100)”.
For `CCc1cc(I)ccc1NC(=O)c1cccc(I)c1C(=O)NC(C)C` [compound 951], the “Insecticidal effect, Test Example 3” value in assay [1] is given as “A (100)”. For the same molecule, the “Insecticidal effect, Test Example 2” value in assay [2] is “A (100)”. The “Insecticidal effect, Test Example 1” value in assay [3] was “A (100)”.
For the molecule `Cc1cc(C(F)(F)C(F)(F)F)ccc1NC(=O)c1cccc(C)c1C(=O)NC(C)C` [compound 953], the “Insecticidal effect, Test Example 3” value in assay [1] was “A (100)”. For the same molecule, the “Insecticidal effect, Test Example 2” value in assay [2] is given as “A (100)”. Further, the “Insecticidal effect, Test Example 1” value in assay [3] is given as “A (100)”.
In the case of `Cc1cc(C(F)(F)C(F)(F)F)ccc1NC(=O)c1cccc(C)c1C(=O)NC(C)(C)C` [compound 955], the “Insecticidal effect, Test Example 3” value in assay [1] is on record as “A (100)”. The “Insecticidal effect, Test Example 2” value in assay [2] is “A (100)”. In addition, in assay [3], the “Insecticidal effect, Test Example 1” value is given as “A (100)”.
As for `Cc1cc(OC(F)(F)F)ccc1NC(=O)c1cccc(I)c1C(=O)NC(C)(C)C` [compound 957], in assay [1], the “Insecticidal effect, Test Example 3” value was “A (100)”. In assay [2], the “Insecticidal effect, Test Example 2” value is listed as “A (100)”. The “Insecticidal effect, Test Example 1” value in assay [3] is on record as “A (100)”.
On to `Cc1cc(C#Cc2ccc(Cl)cc2Cl)ccc1NC(=O)c1cccc(Cl)c1C(=O)NC(C)C` [compound 971], for which the “Insecticidal effect, Test Example 3” value in assay [1] is given as “A (100)”. The “Insecticidal effect, Test Example 2” value in assay [2] is “A (100)”. In addition, the “Insecticidal effect, Test Example 1” value in assay [3] is given as “A (100)”.
Consider `CC(C)NC(=O)c1c(Cl)cccc1C(=O)Nc1ccc2c(c1)OC(F)(F)C2(F)F` [compound 973], for which, in assay [1], the “Insecticidal effect, Test Example 3” value was “A (100)”. The “Insecticidal effect, Test Example 2” value in assay [2] is on record as “A (100)”. Further, the “Insecticidal effect, Test Example 1” value in assay [3] is recorded as “A (100)”.
Regarding `CC(C)NC(=O)c1c(I)cccc1C(=O)Nc1ccc2c(c1)OC(F)(F)C2(F)F` [compound 974], in assay [1], the “Insecticidal effect, Test Example 3” value is reported as “A (100)”. The “Insecticidal effect, Test Example 2” value in assay [2] was “A (100)”. In addition, the “Insecticidal effect, Test Example 1” value in assay [3] is “A (100)”.
Turning to `CC(C)NC(=O)c1c(C(=O)Nc2ccc3c(c2)OC(F)(F)C(F)(F)O3)cccc1[N+](=O)[O-]` [compound 976], the “Insecticidal effect, Test Example 3” value in assay [1] is “A (100)”. Further, in assay [2], the “Insecticidal effect, Test Example 2” value was “A (100)”. In addition, in assay [3], the “Insecticidal effect, Test Example 1” value is “A (100)”.
As for `CC(C)NC(=O)c1c(Cl)cccc1C(=O)Nc1ccc2c(c1)OC(F)(F)C(F)(F)O2` [compound 977], the “Insecticidal effect, Test Example 3” value in assay [1] is given as “A (100)”. The “Insecticidal effect, Test Example 2” value in assay [2] was “A (100)”. For the same molecule, the “Insecticidal effect, Test Example 1” value in assay [3] was “A (100)”.
`CC(C)NC(=O)c1ccccc1C(=O)Nc1ccc(C(O)(C(F)(F)F)C(F)(F)F)cc1` [compound 978]: the “Insecticidal effect, Test Example 3” value in assay [1] is “A (100)”. The “Insecticidal effect, Test Example 2” value in assay [2] is reported as “C (89-80)”. In addition, in assay [3], the “Insecticidal effect, Test Example 1” value was “A (100)”.
